Assay results reported in patent publication US10030016B2 (Sunesis Pharmaceuticals, Inc., priority 2009, dated 2018).
Read-outs that look alike come from different tables or passages of the source.

How the values were obtained:
[1] = test system: phospho-akt (Thr308) in PC-3 cells; test: Inhibition of phospho-akt (Thr308) in PC-3 cells, MSD phospho-akt 308 ELISA kit; type: cell-based; details: Homo sapiens, inhibition of P308 Akt in PC-3 cells, 2 hours, no serum, MSD, read-out: EC50
In short: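 Electrochemiluminescent MSD ELISA of Thr308-phosphorylated Akt after a 2 h serum-free compound exposure of PC-3 cells (15,000/well, plated overnight). Controls: DMSO (high), 5 μM wortmannin (low). Lysate binding overnight at 4 °C; detection antibody 1 h at room temperature.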

[2] = biological target: PDK1 (Homo sapiens (Human), UniProt O15530); test: PDK1 kinase assay (coupled PDK1/AKT/FAM-crosstide assay, IMAP fluorescence polarization); type: biochemical; details: inhibition of phospo-PDK1 in vitro
Method: A PDK1 kinase assay was performed as follows. PDK1 (amino acids 51-359) and AKT2 (amino acids 140-467 fused to PIFtide, amino acids […]) were expressed as N-terminally tagged GST fusion proteins in insect cells and purified to homogeneity. Enzyme activity was determined in a coupled PDK1/AKT/FAM-crosstide assay and phosphorylation of FAM-crosstide was determined by standard IMAP protocol (Molecular Devices). For inhibition studies, compounds were titrated 4-fold in DMSO and diluted 40-fold into assay buffer (10 mM Tris HCl pH7.2; 10 mM MgCl2; 0.01% Triton X-100; 1 mM DTT) containing PDK1, AKT2, and FAM-crosstide (final concentrations: 0.75 nM PDK1, 10 nM unphosphorylated AKT2, and 100 nM crosstide substrate). The kinase reaction was initiated by adding ATP to a final concentration of 40 μM of PDK1 and incubated at 25° C. for 30 min. To detect assay product, the kinase reaction was combined with Progressive Binding Solution (1:600 Progressive Binding Reagent, 50% Buffer A, 50% Buffer B, Molecular Devices) in a 1:3 ratio. The mixture was incubated for 2 hours at 25° C. and the plate was scanned on an Analyst AD with excitation at 485 nm and emission at 530 nm. The fluorescence polarization value “P” is defined by the equation below. The value “mP” is generated by multiplying the P value for each reaction well by a factor of 1000. The value “ΔmP” for each well is the mP value for that well minus the mP value for the average negative control. P=(Fpar−Fperp)/(Fpar+Fperp) Eq.:
Where “par” is fluorescence intensity parallel to the excitation plane; and “perp” is fluorescence intensity perpendicular to the excitation plane. ΔmP values were plotted as a function of compound concentration and the data were analyzed with a 4-parameter fit using GraphPad Prism software.

PDK1, sequence (O15530 51-359): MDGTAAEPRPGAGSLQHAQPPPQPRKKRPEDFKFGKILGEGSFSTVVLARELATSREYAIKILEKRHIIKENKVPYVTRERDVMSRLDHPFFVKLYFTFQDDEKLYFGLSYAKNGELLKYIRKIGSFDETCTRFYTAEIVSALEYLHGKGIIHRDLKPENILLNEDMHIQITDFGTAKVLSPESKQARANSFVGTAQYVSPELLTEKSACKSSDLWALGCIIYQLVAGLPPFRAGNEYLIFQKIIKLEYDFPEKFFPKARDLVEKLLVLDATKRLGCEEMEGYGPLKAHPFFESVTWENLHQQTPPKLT

EC50 [1] [nM]	IC50 [2] [nM]	EC50 ([1]; PC-3, 2 h) [nM]	Structure (SMILES)
< 1000	< 100		C=C(C)c1cnc(NCc2ccc(-c3ccc4ncnc(N)c4c3)s2)c(C(=O)NCc2ccc(F)c(F)c2)c1 [Ex. 8.13, 2-({[5-(4-aminoquinazolin-6-yl)thiophen-2-yl]methyl}amino)-N-(3,4-difluorobenzyl)-5-(prop-1-en-2-yl)pyridine-3-carboxamide]
< 1000	< 100		Nc1ncnc2ccc(-c3ccc(CNc4nc5ccccc5cc4C(=O)NCc4ccc(F)c(F)c4)s3)cc12 [Ex. 8.14.1, 2-({[5-(4-aminoquinazolin-6-yl)thiophen-2-yl]methyl}amino)-N-(3,4-difluorobenzyl) quinoline-3-carboxamide]
1000 to 10000	100 to 1000		Nc1ncnc2ccc(-c3ccc(CNc4nc5c(cc4C(=O)NCc4ccc(F)c(F)c4)CCC5)s3)cc12 [Ex. 8.15.1, 2-({[5-(4-aminoquinazolin-6-yl)thiophen-2-yl]methyl}amino)-N-(3,4-difluorobenzyl)-6,7-dihydro-5H-cyclopenta [b]pyridine-3-carboxamide]
> 10000	100 to 1000		Nc1ncnc2ccc(-n3cc(CNc4ncccc4C(=O)NCc4ccc(F)c(F)c4)nn3)cc12 [Ex. 9.1, 2-((1-(4-aminoquinazolin-6-yl)-1H-1,2,3-triazol-4-yl)methylamino)-N-(3,4-difluorobenzyl)nicotinamide]
1000 to 10000	< 100		Nc1ncnc2ccc(-c3ccc(CNc4nccnc4C(=O)NCc4ccc(F)c(F)c4)s3)cc12 [Ex. 10.1]
1000 to 10000	< 100		Nc1ncnc2ccc(-c3ccc(CNc4ncc(Br)nc4C(=O)NCc4ccc(F)c(F)c4)s3)cc12 [Ex. 10.2, 3-({[5-(4-aminoquinazolin-6-yl)thiophen-2-yl]methyl}amino)-6-bromo-N-(3,4-difluorobenzyl)pyrazine-2-carboxamide]
> 10000	> 5000		Nc1ncnc2ccc(-c3ccc(CNc4ncc(-c5ccccc5)nc4C(=O)NCc4ccc(F)c(F)c4)s3)cc12 [Ex. 10.3, 3-({[5-(4-aminoquinazolin-6-yl)thiophen-2-yl]methyl}amino)-N-(3,4-difluorobenzyl)-6-phenylpyrazine-2-carboxamide]
> 10000	100 to 1000		CC(C)c1cnc(NCc2ccc(-c3ccc4ncnc(N)c4c3)s2)c(C(=O)NCc2ccc(F)c(F)c2)n1 [Ex. 10.4, 3-({[5-(4-aminoquinazolin-6-yl)thiophen-2-yl]methyl}amino)-N-(3,4-difluorobenzyl)-6-(propan-2-yl)pyrazine-2-carboxamide]
1000 to 10000	< 100		C=C(C)c1cnc(NCc2ccc(-c3ccc4ncnc(N)c4c3)s2)c(C(=O)NCc2ccc(F)c(F)c2)n1 [Ex. 10.5, 3-({[5-(4-aminoquinazolin-6-yl)thiophen-2-yl]methyl}amino)-N-(3,4-difluorobenzyl)-6-(prop-1-en-2-yl)pyrazine-2-carboxamide]
	100 to 1000	1000 to 10000	C/C=C/c1cnc(NCc2ccc(-c3ccc4ncnc(N)c4c3)s2)c(C(=O)NCc2ccc(F)c(F)c2)n1 [Ex. 10.6, 3-({[5-(4-aminoquinazolin-6-yl)thiophen-2-yl]methyl}amino)-N-(3,4-difluorobenzyl)-6-[(1E)-prop-1-en-1-yl] pyrazine-2-carboxamide]
1000 to 10000	1000 to 5000		CCCc1cnc(NCc2ccc(-c3ccc4ncnc(N)c4c3)s2)c(C(=O)NCc2ccc(F)c(F)c2)n1 [Ex. 10.7, 3-({[5-(4-aminoquinazolin-6-yl)thiophen-2-yl]methyl}amino)-N-(3,4-difluorobenzyl)-6-propylpyrazine-2-carboxamide]
< 1000	100 to 1000		COCC#Cc1cnc(NCc2ccc(-c3ccc4ncnc(N)c4c3)s2)c(C(=O)N[C@@H](C)c2ccc(F)c(F)c2)n1 [Ex. 10.8, 3-({[5-(4-aminoquinazolin-6-yl)thiophen-2-yl]methyl}amino)-N-[(1S)-1-(3,4-difluorophenyl)ethyl]-6-(3-methoxyprop-1-yn-1-yl)pyrazine-2-carboxamide]
< 1000	100 to 1000		C[C@H](NC(=O)c1nc(C#N)cnc1NCc1ccc(-c2ccc3ncnc(N)c3c2)s1)c1ccc(F)c(F)c1 [Ex. 10.9, 3-({[5-(4-aminoquinazolin-6-yl)thiophen-2-yl]methyl}amino)-6-cyano-N-[(1S)-1-(3,4-difluorophenyl)ethyl] pyrazine-2-carboxamide]
1000 to 10000	< 100		Cn1cc(C(=O)NCc2ccc(F)c(F)c2)c(NCc2ccc(-c3ccc4ncnc(N)c4c3)s2)n1 [Ex. 11.1]
> 10000	100 to 1000		C[C@H](NC(=O)c1cn(-c2ccccc2)nc1NCc1ccc(-c2ccc3ncnc(N)c3c2)s1)c1ccc(F)c(F)c1 [Ex. 11.2]
< 1000	< 100		C[C@H](NC(=O)c1cn(-c2ccccn2)nc1NCc1ccc(-c2ccc3ncnc(N)c3c2)s1)c1ccc(F)c(F)c1 [Ex. 11.3]
> 10000	< 100		Nc1ncnc2ccc(-c3ccc(CNc4ncsc4C(=O)NCc4ccc(F)c(F)c4)s3)cc12 [Ex. 12.1]
> 10000	1000 to 5000		Nc1ncnc2ccc(-c3csc(Nc4ncccc4C(=O)NCc4ccc(F)c(F)c4)n3)cc12 [Ex. 13, 2-(4-(4-aminoquinazolin-6-yl)thiazol-2-ylamino)-N-(3,4-difluorobenzyl)-nicotinamide]
1000 to 10000	< 100		O=C(NCc1ccc(F)c(F)c1)c1cccnc1NCc1cccc(-c2c[nH]c3ncccc23)c1 [Example 1.5, 2-(3-(1H-pyrrolo[2,3-b]pyridin-3-yl)benzylamino)-N-(3,4-difluorobenzyl)nicotinamide]
1000 to 10000	< 100		O=C(NCc1ccc(F)cc1)c1cccnc1NCc1cccc(-c2c[nH]c3ncccc23)c1 [Example 1.6, 2-(3-(1H-pyrrolo[2,3-b]pyridin-3-yl)benzylamino)-N-(4-fluorobenzyl)nicotinamide]
> 10000	1000 to 5000		O=C(NCc1ccc(C(F)(F)F)cc1)c1cccnc1NCc1cccc(-c2c[nH]c3ncccc23)c1 [Example 1.7, 2-(3-(1H-pyrrolo[2,3-b]pyridin-3-yl)benzylamino)-N-(4-(trifluoromethyl)benzyl) nicotinamide]
1000 to 10000	100 to 1000		O=C(NCC1CCCC1)c1cccnc1NCc1cccc(-c2c[nH]c3ncccc23)c1 [Example 1.8, 2-(3-(1H-pyrrolo[2,3-b]pyridin-3-yl)benzylamino)-N-(cyclopentylmethyl)nicotinamide]
1000 to 10000	> 5000		CCCNC(=O)c1cccnc1NCc1cccc(-c2c[nH]c3ncccc23)c1 [Example 1.9, N-propyl-2-{[3-(1H-pyrrolo[2,3-b]pyridin-3-yl)benzyl]amino}pyridine-3-carboxamide]
1000 to 10000	> 5000		CC(C)NC(=O)c1cccnc1NCc1cccc(-c2c[nH]c3ncccc23)c1 [Example 1.10, N-(propan-2-yl)-2-{[3-(1H-pyrrolo [2,3-b]pyridin-3-yl)benzyl]amino} pyridine-3-carboxamide]
1000 to 10000	> 5000		CCNC(=O)c1cccnc1NCc1cccc(-c2c[nH]c3ncccc23)c1 [Example 1.11, N-ethyl-2-{[3-(1H-pyrrolo[2,3-b]pyridin-3-yl)benzyl]amino}pyridine-3-carboxamide]
> 10000	> 5000		O=C(c1cccnc1NCc1cccc(-c2c[nH]c3ncccc23)c1)N1CCCCC1 [Example 1.13, Piperidin-1-yl(2-{[3-(1H-pyrrolo [2,3-b]pyridin-3-yl)benzyl]amino}pyridin-3-yl)methanone]
	100 to 1000	1000 to 10000	O=C(Nc1ccc(F)c(F)c1)c1cccnc1NCc1cccc(-c2c[nH]c3ncccc23)c1 [Example 1.14, N-(3,4-difluorophenyl)-2-{[3-(1H-pyrrolo[2,3-b]pyridin-3-yl)benzyl]amino}pyridine-3-carboxamide]
> 10000	> 5000		CNC(=O)c1cccnc1NCc1cccc(-c2c[nH]c3ncccc23)c1 [Example 1.15, N-methyl-2-{[3-(1H-pyrrolo [2,3-b]pyridin-3-yl)benzyl]amino}pyridine-3-carboxamide]
	100 to 1000	> 10000	O=C(NCc1ccc(F)cc1)c1cccnc1NCc1ccc(-c2c[nH]c3ncccc23)s1 [Example 1.16, 2-(((5-(1H-pyrrolo[2,3-b]pyridin-3-yl)thiophen-2-yl)methyl)amino)-N-(4-fluorobenzyl)nicotinamide]
